Source: ChEMBL document CHEMBL3758177, “Synthesis and biological evaluation of novel phosphoramidate derivatives of coumarin as chitin synthase inhibitors and antifungal agents” (Eur J Med Chem, 2016)
In brackets after ≈: the same amount, converted by molar mass.

Experiments:
Aspergillus flavus = assay: Antifungal activity against Aspergillus flavus ATCC 16870 after 24 hrs by two-fold serial dilution method; assay type: functional; settings: ATCC 16870, 24 h
Aspergillus fumigatus = assay: Antifungal activity against Aspergillus fumigatus GIMCC 3.19 after 24 hrs by two-fold serial dilution method; assay type: functional; settings: GIMCC 3.19, 24 h
Cryptococcus neoformans = assay: Antifungal activity against Cryptococcus neoformans ATCC 32719 after 24 hrs by two-fold serial dilution method; assay type: functional; settings: ATCC 32719, 24 h
Staphylococcus aureus [1] = assay: Antibacterial activity against Methicillin-resistant Staphylococcus aureus N 315 after 24 hrs by two-fold serial dilution method; assay type: functional; settings: N 315, 24 h
Staphylococcus aureus [2] = assay: Antibacterial activity against Staphylococcus aureus ATCC 25923 after 24 hrs by two-fold serial dilution method; assay type: functional; settings: ATCC 25923, 24 h
Bacillus spizizenii = assay: Antibacterial activity against Bacillus subtilis ATCC 6633 after 24 hrs by two-fold serial dilution method; assay type: functional; settings: ATCC 6633, 24 h
Proteus vulgaris = assay: Antibacterial activity against Proteus vulgaris ATCC 8427 after 24 hrs by two-fold serial dilution method; assay type: functional; settings: ATCC 8427, 24 h
Pseudomonas aeruginosa = assay: Antibacterial activity against Pseudomonas aeruginosa ATCC 9027 after 24 hrs by two-fold serial dilution method; assay type: functional; settings: ATCC 9027, 24 h
Escherichia coli = assay: Antibacterial activity against Escherichia coli JM 109 after 24 hrs by two-fold serial dilution method; assay type: functional; settings: JM 109, 24 h
Candida tropicalis = assay: Inhibition of Candida tropicalis ATCC 750 chitin synthase using UDP-GlcNAc as substrate at 300 ug/ml after 60 mins by microplate reader method
[3] = Inhibition of Candida tropicalis ATCC 750 chitin synthase using UDP-GlcNAc as substrate after 60 mins by microplate reader method
Candida albicans = assay: Antifungal activity against Candida albicans CMCC 76615 after 24 hrs by two-fold serial dilution method; assay type: functional; settings: CMCC 76615, 24 h

SMILES | MIC (Aspergillus flavus) [µg/mL] | MIC (Aspergillus fumigatus) [µg/mL] | MIC (Cryptococcus neoformans) [µg/mL] | MIC (Staphylococcus aureus [1]) [µg/mL] | MIC (Staphylococcus aureus [2]) [µg/mL] | MIC (Bacillus spizizenii) [µg/mL] | MIC (Proteus vulgaris) [µg/mL] | MIC (Pseudomonas aeruginosa) [µg/mL] | MIC (Escherichia coli) [µg/mL] | inhibition (Candida tropicalis) [%] | IC50 [3] [µM] | MIC (Candida albicans) [µg/mL]
COC(=O)C(C)NP(=O)(OCCN(C)c1cc(=O)oc2ccc(C(C)(C)C)cc12)Oc1ccccc1 (stereo not given) | 16 (≈ 31 µM) | 64 (≈ 124 µM) | 64 (≈ 124 µM) | 1 (≈ 1.94 µM) | 64 (≈ 124 µM) | 16 (≈ 31 µM) | 16 (≈ 31 µM) | 16 (≈ 31 µM) | 16 (≈ 31 µM) | 62 | 170 | 64 (≈ 124 µM)
COC(=O)C(Cc1ccccc1)NP(=O)(OCCN(C)c1cc(=O)oc2ccccc12)Oc1ccccc1 (stereo not given) | 8 (≈ 14.9 µM) | 128 (≈ 239 µM) | 64 (≈ 119 µM) | 128 (≈ 239 µM) | 64 (≈ 119 µM) | 128 (≈ 239 µM) | 16 (≈ 29.8 µM) | 64 (≈ 119 µM) | 64 (≈ 119 µM) | 59 | 250 | 64 (≈ 119 µM)
COC(=O)CNP(=O)(OCCN(C)c1cc(=O)oc2ccc(C(C)(C)C)cc12)Oc1ccccc1 (stereo not given) | 64 (≈ 127 µM) | 32 (≈ 63.7 µM) | 32 (≈ 63.7 µM) | 8 (≈ 15.9 µM) | 64 (≈ 127 µM) | 16 (≈ 31.8 µM) | 64 (≈ 127 µM) | 16 (≈ 31.8 µM) | 64 (≈ 127 µM) | 50 | 620 | 64 (≈ 127 µM)
COC(=O)C(NP(=O)(OCCN(C)c1cc(=O)oc2c(C)cccc12)Oc1ccccc1)C(C)C (stereo not given) | 128 (≈ 255 µM) | 128 (≈ 255 µM) | 128 (≈ 255 µM) | 32 (≈ 63.7 µM) | 128 (≈ 255 µM) | 32 (≈ 63.7 µM) | 256 (≈ 509 µM) | 256 (≈ 509 µM) | 256 (≈ 509 µM) | 45 |  | 128 (≈ 255 µM)
COC(=O)C(NP(=O)(OCCN(C)c1cc(=O)oc2ccc(C)cc12)Oc1ccccc1)C(C)C (stereo not given) | 128 (≈ 255 µM) | 128 (≈ 255 µM) | 32 (≈ 63.7 µM) | 32 (≈ 63.7 µM) | 16 (≈ 31.8 µM) | 16 (≈ 31.8 µM) | 32 (≈ 63.7 µM) | 16 (≈ 31.8 µM) | 16 (≈ 31.8 µM) | 41 |  | 64 (≈ 127 µM)
COC(=O)CNP(=O)(OCCN(C)c1cc(=O)oc2ccc(C)cc12)Oc1ccccc1 (stereo not given) | 64 (≈ 139 µM) | 64 (≈ 139 µM) | 64 (≈ 139 µM) | 256 (≈ 556 µM) | 256 (≈ 556 µM) | 256 (≈ 556 µM) | 512 (≈ 1110 µM) | 128 (≈ 278 µM) | 512 (≈ 1110 µM) | 51 | 600 | 128 (≈ 278 µM)
COC(=O)C(C)NP(=O)(OCCN(C)c1cc(=O)oc2ccc(C)cc12)Oc1ccccc1 (stereo not given) | 128 (≈ 270 µM) | 64 (≈ 135 µM) | 32 (≈ 67.4 µM) | 256 (≈ 540 µM) | 256 (≈ 540 µM) | 256 (≈ 540 µM) | 512 (≈ 1080 µM) | 512 (≈ 1080 µM) | 16 (≈ 33.7 µM) | 61 | 260 | 64 (≈ 135 µM)
COC(=O)C(Cc1ccccc1)NP(=O)(OCCN(C)c1cc(=O)oc2c(C)cccc12)Oc1ccccc1 (stereo not given) | 64 (≈ 116 µM) | 128 (≈ 232 µM) | 64 (≈ 116 µM) | 1 (≈ 1.82 µM) | 256 (≈ 465 µM) | 16 (≈ 29.1 µM) | 256 (≈ 465 µM) | 128 (≈ 232 µM) | 256 (≈ 465 µM) | 48 |  | 128 (≈ 232 µM)
COC(=O)C(NP(=O)(OCCN(C)c1cc(=O)oc2ccccc12)Oc1ccccc1)C(C)C (stereo not given) | 16 (≈ 32.8 µM) | 64 (≈ 131 µM) | 64 (≈ 131 µM) | 256 (≈ 524 µM) | 256 (≈ 524 µM) | 128 (≈ 262 µM) | 512 (≈ 1050 µM) | 512 (≈ 1050 µM) | 512 (≈ 1050 µM) | 54 | 380 | 32 (≈ 65.5 µM)
COC(=O)C(NP(=O)(OCCN(C)c1cc(=O)oc2cc(C)ccc12)Oc1ccccc1)C(C)C (stereo not given) | 128 (≈ 255 µM) | 128 (≈ 255 µM) | 128 (≈ 255 µM) | 128 (≈ 255 µM) | 64 (≈ 127 µM) | 32 (≈ 63.7 µM) | 128 (≈ 255 µM) | 64 (≈ 127 µM) | 256 (≈ 509 µM) | 38 |  | 128 (≈ 255 µM)
NC(=O)OC[C@H](O)[C@@H](O)[C@H](N)C(=O)N[C@H](C(=O)O)[C@H]1O[C@@H](n2cc(CO)c(=O)[nH]c2=O)[C@H](O)[C@@H]1O [POLYOXIN B] | 64 (≈ 126 µM) | 64 (≈ 126 µM) | 8 (≈ 15.8 µM) |  |  |  |  |  |  | 82 | 160 | 32 (≈ 63.1 µM)
COC(=O)C(Cc1ccccc1)NP(=O)(OCCN(C)c1cc(=O)oc2cc(C)ccc12)Oc1ccccc1 (stereo not given) | 1 (≈ 1.82 µM) | 64 (≈ 116 µM) | 32 (≈ 58.1 µM) | 2 (≈ 3.63 µM) | 32 (≈ 58.1 µM) | 16 (≈ 29.1 µM) | 16 (≈ 29.1 µM) | 128 (≈ 232 µM) | 16 (≈ 29.1 µM) | 56 | 300 | 64 (≈ 116 µM)
COC(=O)C(C)NP(=O)(OCCN(C)c1cc(=O)oc2cc(C)ccc12)Oc1ccccc1 (stereo not given) | 64 (≈ 135 µM) | 128 (≈ 270 µM) | 128 (≈ 270 µM) | 256 (≈ 540 µM) | 128 (≈ 270 µM) | 256 (≈ 540 µM) | 256 (≈ 540 µM) | 256 (≈ 540 µM) | 128 (≈ 270 µM) | 45 |  | 128 (≈ 270 µM)
